According to patent publication US8293774B2, “Optically active (R)-aryloxypropionic acid amides and herbicidal composition comprising same” (Kyung Nong Corporation, priority 2007, dated 2012):

Assays:
Rice = assay: Weed control test, 4-leaf stage plants (Test Example 1, Table 8); details: in vivo
Method: (§1) Seeds of rice, wheat, soy bean, barley, corn, common sorgum, barnyard grass, large crabgrass, creek grass, green foxtail and fall panicum were placed in sandy loam in 600 cm^2 pots and covered with soil. After keeping the pots in a greenhouse at 20 to 30° C. allowing growth of the plants to the 3-leaf stage of the barnyard grass, 2,000 l/ha of an emulsion obtained by diluting with water a mixture of 1 part by weight of a test compound, 5 parts by weight of acetone and 1 part by weight of an emulsifying agent (Tween 80, Junsei) was applied to the surface of the foliage of the plants. The plant damage at 10 days and 20 days after the foliage treatment was visually evaluated from the level of 1 to 100% by comparison with the untreated control: […]

[1] = test system: DIGSA (Digitaria Sanguinalis (L.) SCOP, large crabgrass); assay: Weed control test, foliage treatment (Test Example 1, Table 7); type: in vivo; details: Digitaria sanguinalis, foliar, read-out: Plant damage (herbicidal activity), visually evaluated, DIGSA; for pest or weed control at 25 g/ha: 0.025 kg/ha; for pest or weed control at 100 g/ha: 0.1 kg/ha; for pest or weed control at 200 g/ha: 0.2 kg/ha
Outline: (§2)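 Plants are raised from seed in sandy loam in a greenhouse at 20 to 30° C. When barnyard grass reaches the 3-leaf stage, the foliage receives 2,000 l/ha of a diluted emulsion containing compound, acetone and Tween 80. Damage is judged by eye against untreated controls after 10 and 20 days.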

[2] = test system: ECHOG (Echinoch crus-galli Beauv. var. caudata Kitagawa, barnyard grass); assay: as above; type: in vivo; details: Echinochloa crus-galli, foliar, 3-leaf stage, read-out: Plant damage (herbicidal activity), visually evaluated, ECHOG; for pest or weed control at 25 g/ha: 0.025 kg/ha; for pest or weed control at 100 g/ha: 0.1 kg/ha; for pest or weed control at 200 g/ha: 0.2 kg/ha
Outline: as §2

[3] = test system: ARTHIS (Arthraxon hispidus (Thunb.) Makino, creek grass); assay: as above; type: in vivo; details: Arthraxon hispidus, foliar, read-out: Plant damage (herbicidal activity), visually evaluated, ARTHIS; for pest or weed control at 25 g/ha: 0.025 kg/ha; for pest or weed control at 100 g/ha: 0.1 kg/ha; for pest or weed control at 200 g/ha: 0.2 kg/ha
Outline: as §2

[4] = test system: ZEAMX (Zea mays L., corn); assay: as above; type: in vivo; details: Zea mays, foliar, read-out: Plant damage (herbicidal activity), visually evaluated, ZEAMX; for plant injury at 25 g/ha: 0.025 kg/ha; for plant injury at 100 g/ha: 0.1 kg/ha; for plant injury at 200 g/ha: 0.2 kg/ha
Outline: as §2

[5] = test system: SORBI (Andropogon sorghum, common sorgum); assay: as above; type: in vivo; details: Sorghum bicolor, foliar, read-out: Plant damage (herbicidal activity), visually evaluated, SORBI; for pest or weed control at 25 g/ha: 0.025 kg/ha; for pest or weed control at 100 g/ha: 0.1 kg/ha; for pest or weed control at 200 g/ha: 0.2 kg/ha
Outline: as §2

[6] = test system: SETVIR (Setaria viridis (L.) Beauv, green foxtail); assay: as above; type: in vivo; details: Setaria viridis, foliar, read-out: Plant damage (herbicidal activity), visually evaluated, SETVIR; for pest or weed control at 25 g/ha: 0.025 kg/ha; for pest or weed control at 100 g/ha: 0.1 kg/ha; for pest or weed control at 200 g/ha: 0.2 kg/ha
Outline: as §2

[7] = test system: PANDI (Panium dichotomiflorum Michx, fall panicum); assay: as above; type: in vivo; details: Panicum dichotomiflorum, foliar, read-out: Plant damage (herbicidal activity), visually evaluated, PANDI; for pest or weed control at 25 g/ha: 0.025 kg/ha; for pest or weed control at 100 g/ha: 0.1 kg/ha; for pest or weed control at 200 g/ha: 0.2 kg/ha
Outline: as §2

Barnyard grass = assay: Weed control test, 4-leaf stage plants (Test Example 1, Table 8); type: in vivo, Echinoch crus-galli Beauv. var. caudata Kitagawa
Text: as §1, with “[…],” for “After keeping the pots in a greenhouse at 20 to 30° C. allowing growth of the plants to the 3-leaf stage of the barnyard grass,”

[8] = test system: TRZAW (Tritium aestivum L., wheat); assay: Weed control test, foliage treatment (Test Example 1, Table 7); details: in vivo
[9] = test system: GLXMA (Glycine max(L.) MERR, soy bean); assay: as above; details: in vivo
Echinochloa oryzicola = assay: Foliage treatment with emulsions, dry rice field conditions (Test Example 2, Table 9); type: in vivo; details: 150 g a.i./ha; emulsion of Formulation Example 3; division stage 1~2; 20 days after foliage treatment
Text: (§3) Seeds of rice (Nampyung rice) and barnyard grasses (Echinochloa oryzicola and Echinochloa crus-galli var. crus-galli) were placed in sandy loam of pots, covered with soil, and grown in the dry rice field conditions.
(§4) Rice (6˜6.5-leaf stage, plant height 33.2 cm) and barnyard grasses (Echinochloa oryzicola: division stage 1˜2, plant height 38.0 cm, Echinochloa crus-galli var. crus-galli: division stage 1˜2, plant height 44.1 cm) were subjected to a foliage treatment with emulsions prepared according to Formulation Example 3 by using compounds of Examples 1, 5 and 13 (purity: 99% or more), wherein the emulsions were sprayed to the plants at a dosage of the active compound of 150 g/ha.
(§5) The herbicidal effect on the barnyard grasses and harmful effect on the rice of the test compounds at 20 days and 30 days after the foliage treatment were visually evaluated as in Test Example 1 in comparison with the untreated control, and the results are shown in Table 9.

[10] = test system: Echinochloa crus-galli var. crus-galli; assay: as above; type: in vivo; details: 150 g a.i./ha; emulsion of Formulation Example 3; division stage 1~2; 20 days after foliage treatment
Text: as §3, §4, §5

rice (Nampyung rice) = assay: Foliage treatment with emulsions, dry rice field conditions, harmful effect on rice (Test Example 2, Table 9); type: in vivo; details: 6~6.5-leaf stage, 150 g a.i./ha, emulsion; for Harmful effect, 20 days: 20 days after foliage treatment; for Harmful effect, 30 days: 30 days after foliage treatment
Text: as §3

[11] = test system: ORYSA (Oryza sativa cv. Dongjin, rice); assay: Weed control test, foliage treatment (Test Example 1, Table 7); details: in vivo

Row | Structure (SMILES) | pest or weed control at 25 g/ha [1] | pest or weed control at 100 g/ha [1] | pest or weed control at 200 g/ha [1] | pest or weed control at 25 g/ha [2] | pest or weed control at 100 g/ha [2] | pest or weed control at 200 g/ha [2] | pest or weed control at 25 g/ha [3] | pest or weed control at 100 g/ha [3] | pest or weed control at 200 g/ha [3] | plant injury at 25 g/ha [4] | plant injury at 100 g/ha [4] | plant injury at 200 g/ha [4] | pest or weed control at 25 g/ha [5] | pest or weed control at 100 g/ha [5] | pest or weed control at 200 g/ha [5] | pest or weed control at 25 g/ha [6] | pest or weed control at 100 g/ha [6] | pest or weed control at 200 g/ha [6] | pest or weed control at 25 g/ha [7] | pest or weed control at 100 g/ha [7] | other results
1 | C[C@@H](Oc1ccc(Oc2nc3ccc(Cl)cc3o2)cc1)C(=O)Nc1nc2ccccc2s1 [Example 5, (R)-2-[4-(6-chloro-2-benzoxazolyloxy)phenoxy]propionic acid-N-(2-benzothiazolyl)amide] | 95% | 100% | 100% | 95% | 100% | 100% | 40% | 100% | 100% | 60% | 100% | 100% | 25% | 100% | 100% | 80% | 100% | 100% | 90% | 100% | Plant damage (herbicidal activity), visually evaluated, Rice (Rice): 0%; pest or weed control at 200 g/ha [7]: 100%; Plant damage (herbicidal activity), visually evaluated, Barnyard grass (Barnyard grass; 0.025 kg/ha): 70%; Plant damage (herbicidal activity), visually evaluated, Barnyard grass (Barnyard grass; 0.05 kg/ha): 95%; Plant damage (herbicidal activity), visually evaluated, Barnyard grass (Barnyard grass; 0.1 kg/ha): 100%; Plant damage (herbicidal activity), visually evaluated, Barnyard grass (Barnyard grass; 0.4 kg/ha): 100%; Plant damage (herbicidal activity), visually evaluated, TRZAW [8]: 0%; Plant damage (herbicidal activity), visually evaluated, GLXMA [9]: 0%; Herbicidal effect (0~100), 20 days, Echinochloa oryzicola (Echinochloa oryzicola): 100%; Herbicidal effect (0~100), 20 days, Echinochloa crus-galli var. crus-galli [10]: 100%; Harmful effect, 20 days (rice (Nampyung rice)): 0%; Harmful effect, 30 days (rice (Nampyung rice)): 0%
2 | COc1ccc2nc(NC(=O)[C@@H](C)Oc3ccc(Oc4nc5ccc(Cl)cc5o4)cc3)sc2c1 [Example 13, (R)-2-[4-(6-chloro-2-benzoxazolyloxy)phenoxy]propionic acid-N-(6-methoxy-2-benzothiazolyl)amide] | 75% | 100% | 100% | 70% | 100% | 100% | 50% | 100% | 100% | 40% | 100% | 100% | 30% | 100% | 100% | 50% | 100% | 100% | 20% | 100% | pest or weed control at 200 g/ha [7]: 100%; Plant damage (herbicidal activity), visually evaluated, Barnyard grass (Barnyard grass; 0.025 kg/ha): 20%; Plant damage (herbicidal activity), visually evaluated, Barnyard grass (Barnyard grass; 0.05 kg/ha): 50%; Plant damage (herbicidal activity), visually evaluated, Barnyard grass (Barnyard grass; 0.1 kg/ha): 70%; Plant damage (herbicidal activity), visually evaluated, Barnyard grass (Barnyard grass; 0.4 kg/ha): 100%; Plant damage (herbicidal activity), visually evaluated, TRZAW [8]: 0%; Plant damage (herbicidal activity), visually evaluated, GLXMA [9]: 0%; Herbicidal effect (0~100), 20 days, Echinochloa oryzicola (Echinochloa oryzicola): 70%; Herbicidal effect (0~100), 20 days, Echinochloa crus-galli var. crus-galli [10]: 80%; Harmful effect, 20 days (rice (Nampyung rice)): 10%; Harmful effect, 30 days (rice (Nampyung rice)): 0%
3 | C[C@@H](Oc1ccc(Oc2nc3ccc(Cl)cc3o2)cc1)C(=O)N(C)c1nc2ccccc2s1 [Example 6, (R)-2-[4-(6-chloro-2-benzoxazolyloxy)phenoxy]propionic acid-N-(2-benzothiazolyl)-N-methyl amide] | 0% | 20% | 70% | 0% | 20% | 70% | 0% | 20% | 50% | 0% | 10% | 90% | 10% | 50% | 90% | 0% | 20% | 50% | 0% | 20% | Plant damage (herbicidal activity), visually evaluated, Rice (Rice): 0%; pest or weed control at 200 g/ha [7]: 70%; Plant damage (herbicidal activity), visually evaluated, Barnyard grass (Barnyard grass; 0.025 kg/ha): 0%; Plant damage (herbicidal activity), visually evaluated, Barnyard grass (Barnyard grass; 0.05 kg/ha): 0%; Plant damage (herbicidal activity), visually evaluated, Barnyard grass (Barnyard grass; 0.1 kg/ha): 10%; Plant damage (herbicidal activity), visually evaluated, Barnyard grass (Barnyard grass; 0.4 kg/ha): 30%; Plant damage (herbicidal activity), visually evaluated, TRZAW [8]: 0%; Plant damage (herbicidal activity), visually evaluated, GLXMA [9]: 0%; Plant damage (herbicidal activity), visually evaluated, ORYSA [11]: 0%
